Measured values taken from patent publication US20190119282A1, “IMIDAZOPYRIDAZINES USEFUL AS INHIBITORS OF THE PAR-2 SIGNALING PATHWAY” (Vertex Pharmaceuticals Incorporated, priority 2013, published 2019).
Marks after values point to notes of the source that are not given here.

Columns and labels:
[1] = test system: UTP-stimulated Ca2+ response in HT-29 cells; assay: Ca FLIPR TETRA assay, ANTAGONIST mode, stimulation with 0.6 μM UTP; format: cell-based, human; settings: Homo sapiens; HT-29 cells, antagonist mode, stimulation with 0.6 μM UTP
Summary of the method: (§1)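 HT-29 cells in 1% FBS/McCoy's overnight, loaded with Calcium 5 dye; compounds added and read first for intrinsic Ca2+ activation, then incubated 30 min at r.t. Antagonism read on FLIPR Tetra after stimulation with final 8 μM SLIGKV, 3.1 U/mL trypsin, 1 U/mL thrombin or 0.6 μM UTP.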

[2] = test system: Thrombin-stimulated Ca2+ response in HT-29 cells; assay: Ca FLIPR TETRA assay, ANTAGONIST mode, stimulation with 1 U/mL Thrombin; format: cell-based, human; settings: Homo sapiens; HT-29 cells, antagonist mode, stimulation with 1 U/mL Thrombin
Summary of the method: as §1

[3] = test system: carrageenan-induced paw edema; assay: Rat carrageenan-induced paw edema model; format: in vivo, Sprague Dawley rats; settings: for % inhibition of carrageenan induced paw edema: given before carrageenan challenge; for % inhibition of an established carrageenan induced rat paw edema: given 2 hours post carrageenan challenge
Procedure: Male Sprague Dawley rats and BALB/c mice were housed in groups in a temperature controlled room and were acclimatized in the animal facility for at least three days prior to use. Experiments were performed during the light phase of the cycle. Animals have food and water ad libitum.
Example 63: Rat Carrageenan-Induced Paw Edema Model
Peripheral inflammation was induced by intra-plantar administration of 100 ul of a 1% w/volume (in saline) carrageenan solution under isoflurane anesthesia. The degree of swelling was assessed using the plethysmometer at 2-3-4-5-6 h after carrageenan injection. Test compound or vehicle (0.5% MC/0.1% SDS) was systemically administered at the indicated doses in a volume of 5 mL/kg either I-3 hour before carrageenan challenge (Table 9) or 2 hours post carrageenan challenge (Table 10).
Data are expressed as the mean % effect. Statistical significance was assessed using t-test for comparison between naive and inflamed rats, and one-way ANOVA followed by post-hoc comparison test for overall drug effectiveness. A difference between groups is considered significant with a p value of <0.05. *, p<0.05; **, p<0.01; ***, p<0.001 vs. vehicle.

`Cc1nc(C(=O)N2CCN(C(=O)c3cn4nc(-c5ccc(F)cc5)cc(C(C)(C)C)c4n3)C(C)(C)C2)n[nH]1` [Compound I-343, (8-(tert-butyl)-6-(4-fluorophenyl)imidazo[1,2-b]pyridazin-2-yl)(2,2-dimethyl-4-(5-methyl-1H-1,2,4-triazole-3-carbonyl)piperazin-1-yl)methanone] was tested, and the IC50 [1] was 1030 nM, the IC50 [2] was 1110 nM and the “% inhibition of carrageenan induced paw edema” value ([3]; dose 0.3 mg/kg) was 19* %. For the same compound, the “% inhibition of an established carrageenan induced rat paw edema” value ([3]; dose 3 mg/kg) was 32** %, the “% inhibition of carrageenan induced paw edema” value ([3]; dose 3 mg/kg) was 28* % and the “% inhibition of an established carrageenan induced rat paw edema” value ([3]; dose 10 mg/kg) was 49** %. For the same compound, the “% inhibition of carrageenan induced paw edema” value ([3]; dose 10 mg/kg) was 34* %, the “% inhibition of an established carrageenan induced rat paw edema” value ([3]; dose 30 mg/kg) was 58** % and the “% inhibition of carrageenan induced paw edema” value ([3]; dose 30 mg/kg) was 50*** %. For the same compound, the “% inhibition of an established carrageenan induced rat paw edema” value ([3]; dose 60 mg/kg) was 70*** %.
